Data published in US20240400571A1, “5,6 UNSATURATED BICYCLIC HETEROCYLES USEFUL AS INHIBITORS OF NOD-LIKE RECEPTOR PROTEIN 3” (Merck Sharp & Dohme LLC, priority 2023, published 2024).

Target: T1, NLRP3 inflammasome (Homo sapiens, UniProt Q96P20)
T1 construct: host or cells: THP-1 human monocytic cells, treated with PMA and stimulated with gramicidin
Experiment: ASC-SPECK formation in THP-1 cells after gramicidin stimulation (NLRP3 inflammasome activation)
Assay type: cell-based
Conditions: PMA-treated human monocytic THP-1 cells; compound 1 h before 12.5 μg/ml gramicidin, 3-hour treatment; ASC SPECK imaging; read-out: EC50 values (nM) for Examples that inhibit NLRP3 inflammasome activation
Protocol: The ability of compounds to inhibit NLRP3 inflammasome activation was determined in vitro by monitoring formation of the ASC-SPECK in human monocytic THP-1 cells after stimulation. THP-1 cells (ATCC catalog #TIB-202) were maintained in complete growth media containing Roswell Park Memorial Institute RPMI (ATCC catalog #30-2001), 10% heat inactivated fetal bovine serum, 1× penicillin/streptomycin and 0.05 mM 2-mercaptoethanol. At the start of the assay, undifferentiated THP-1 cells were plated at a density of 20,000 cells per well in a 384-well plate (Poly-D-lysine coated Cell Carrier Ultra microplate, Perkin Elmer catalog #6057500) in complete growth media supplemented with 10 ng/ml phorbol 12-myristate 13-acetate (PMA; Sigma catalog #P8139), and then incubated overnight. The next day, media was replaced with assay media [RPMI (Gibco catalog #11875-093), 0.01% bovine serum albumin (BSA)]. Compounds were serially diluted in DMSO and then added to wells one hour prior to the addition of 12.5 μg/ml Gramicidin (Enzo Lifescience, catalog #ALX-350-233-M005). All incubations were carried out at 37° C. (5% CO2/95% air). Following a 3-hour treatment with gramicidin, cells are fixed with 4% paraformaldehyde and stored at 4° C. until immunofluorescence staining.
Immunofluorescence staining: Anti-ASC antibody (MBL catalog #D086-3) was desalted and labeled with Alexa 488 antibody labeling kit (Thermo catalog #A20181) prior to use as described below. After fixation, the following steps were carried out at room temperature. Cells were first permeabilized with 0.3% Triton X-100 in phosphate-buffered saline (PBS) for 15 minutes and then incubated in blocking buffer containing 5% goat serum, 0.3% tween-20 and 0.03% sodium azide in PBS for 1 hour. Cells were stained with a mixture of ASC-Alexa 488 antibody (diluted 1:200 in blocking buffer) and nuclear stain DRAQ5 (1:5000 in blocking buffer, Thermo catalog #62251) in blocking buffer for 1 hour. Following a wash with 0.3% Tween-20 in PBS, plates were imaged with an Opera Phenix High Content Screening System. The number of DRAQ5 positive cells containing ASC SPECKS were quantified in each well.
Data analysis: EC50 values were calculated by standard curve-fitting analysis using an internally developed program in TIBCO Spotfire software.

T1 sequence (Q96P20 whole entry): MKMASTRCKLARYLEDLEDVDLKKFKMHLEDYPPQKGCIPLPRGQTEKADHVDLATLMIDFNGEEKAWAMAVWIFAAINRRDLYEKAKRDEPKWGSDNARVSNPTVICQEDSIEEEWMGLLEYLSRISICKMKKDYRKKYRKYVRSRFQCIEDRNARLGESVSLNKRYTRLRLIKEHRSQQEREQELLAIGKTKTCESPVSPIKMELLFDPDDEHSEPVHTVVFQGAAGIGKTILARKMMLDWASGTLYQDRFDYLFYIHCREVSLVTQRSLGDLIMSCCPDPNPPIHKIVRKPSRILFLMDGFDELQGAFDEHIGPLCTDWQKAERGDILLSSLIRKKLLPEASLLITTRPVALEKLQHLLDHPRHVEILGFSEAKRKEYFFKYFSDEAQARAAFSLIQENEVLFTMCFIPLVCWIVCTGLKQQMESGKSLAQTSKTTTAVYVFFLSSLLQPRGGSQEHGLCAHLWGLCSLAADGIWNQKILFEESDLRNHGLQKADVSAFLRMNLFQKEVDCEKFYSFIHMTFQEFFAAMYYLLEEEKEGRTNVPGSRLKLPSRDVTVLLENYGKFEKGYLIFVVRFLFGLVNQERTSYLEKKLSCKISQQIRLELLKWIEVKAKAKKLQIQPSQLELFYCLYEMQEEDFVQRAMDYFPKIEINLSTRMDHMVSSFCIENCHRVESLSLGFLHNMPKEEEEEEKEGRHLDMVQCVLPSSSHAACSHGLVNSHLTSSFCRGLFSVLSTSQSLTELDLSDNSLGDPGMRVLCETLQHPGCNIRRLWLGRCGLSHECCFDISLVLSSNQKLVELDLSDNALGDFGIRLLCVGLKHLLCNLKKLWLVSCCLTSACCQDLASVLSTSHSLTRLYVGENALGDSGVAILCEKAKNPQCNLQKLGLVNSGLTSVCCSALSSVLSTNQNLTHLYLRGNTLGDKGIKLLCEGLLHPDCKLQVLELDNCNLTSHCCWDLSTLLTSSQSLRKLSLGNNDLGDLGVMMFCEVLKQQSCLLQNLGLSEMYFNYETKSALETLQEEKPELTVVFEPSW

EC50	SMILES
91 nM	Cc1cc(C(F)(F)F)cc(O)c1-c1cc2ncn(C3CCCN(C)C3)c2nn1 (racemic) [Example 4, (R and S)-3-methyl-2-(7-(1-methylpiperidin-3-yl)-7H-imidazo[4,5-c]pyridazin-3-yl)-5-(trifluoromethyl)phenol]
320 nM	Cc1c(-c2ccc(Cl)cc2O)nnc2c1ncn2[C@@H]1CCCNC1 [Example 13, (R)-5-chloro-2-(4-methyl-7-(piperidin-3-yl)-7H-imidazo[4,5-c]pyridazin-3-yl)phenol]
1360 nM	Cc1c(-c2ccc(C(F)(F)F)cc2O)nnc2c1ncn2[C@H]1CCCN2CCC[C@H]12 (single isomer, unassigned) [Example 33]
147 nM	Cc1c(-c2ccc(C(F)(F)F)cc2O)nnc2c1ncn2[C@H]1CN(C)CC[C@H]1O [Example 11, (3S,4R)-3-(3-(2-hydroxy-4-(trifluoro-methyl)phenyl)-4-methyl-7H-imidazo[4,5-c]pyridazin-7-yl)-1-methylpiperidin-4-ol]
81 nM	Cc1c(-c2c(O)cc(Cl)cc2F)nnc2c1ncn2[C@@H]1CCCN(C)C1 [Example 26, 5-chloro-3-fluoro-2-(4-methyl-7-((R)-1-methylpiperidin-3-yl)-7H-imidazo-[4,5-c]pyridazin-3-yl)phenol]
103 nM	CCN1CC[C@@H](O)[C@@H](n2cnc3c(C)c(-c4ccc(C(F)(F)F)cc4O)nnc32)C1 [Example 12, (3S,4R)-1-ethyl-3-(3-(2-hydroxy-4-(trifluoro-methyl)phenyl)-4-methyl-7H-imidazo[4,5-c]pyridazin-7-yl)piperidin-4-ol]
112 nM	Cc1c(-c2ccc(C(F)(F)F)cc2O)nnc2c1ncn2[C@@H]1CCCN(C2CCC2)C1 [Example 23, (R)-2-(7-(1-cyclobutylpiperidin-3-yl)-4-methyl-7H-imidazo[4,5-c]pyridazin-3-yl)-5-(trifluoromethyl)phenol]
87 nM	Cc1c(-c2ccc(C(F)(F)F)cc2O)nnc2c1ncn2[C@@H]1CCCN2CCC[C@@H]12 (single isomer, unassigned) [Example 34]
567 nM	Cc1c(-c2ccc(C(F)(F)F)cc2O)nnc2c1nc(C)n2[C@@H]1CCCN(C)C1 [Example 14, (R)-2-(4,6-dimethyl-7-(1-methylpiperidin-3-yl)-7H-imidazo[4,5-c]pyridazin-3-yl)-5-(trifluoromethyl)phenol]
699 nM	CCN1CCC[C@@H](n2cnc3c(C)c(-c4ccc(C(F)(F)F)cc4OC(F)F)nnc32)C1 [Example 9, (R)-3-(2-(difluoromethoxy)-4-(trifluoromethyl)phenyl)-7-(1-ethylpiperidin-3-yl)-4-methyl-7H-imidazo[4,5-c]pyridazine]
25 nM	Cc1c(-c2ccc(C(F)(F)F)cc2O)nnc2c1ncn2[C@@H]1CCCN(C)C1 [Example 10, (R)-2-(4-methyl-7-(1-methylpiperidin-3-yl)-7H-imidazo[4,5-c]pyridazin-3-yl)-5-(trifluoromethyl)phenol]
29 nM	CCN1CCC[C@@H](n2cnc3c(C)c(-c4ccc(Cl)cc4O)nnc32)C1 [Example 18, (R)-5-chloro-2-(7-(1-ethylpiperidin-3-yl)-4-methyl-7H-imidazo[4,5-c]pyridazin-3-yl)phenol]
29 nM	[2H]C([2H])([2H])N1CCC[C@@H](n2cnc3c(C)c(-c4ccc(C(F)(F)F)cc4O)nnc32)C1 [Example 35, (R)-2-(4-methyl-7-(1-(methyl-d3)piperidin-3-yl)-7H-imidazo[4,5-c]pyridazin-3-yl)-5-(trifluoromethyl)phenol]
1000 nM	CN1CCCC(n2cnc3cc(-c4ccc(C(F)(F)F)cc4O)nnc32)C1 (racemic) [Example 8, (R and S)-2-(7-(1-methylpiperidin-3-yl)-7H-imidazo[4,5-c]pyridazin-3-yl)-5-(trifluoromethyl)phenol]
28 nM	Cc1c(-c2ccc(Cl)cc2O)nnc2c1ncn2[C@@H]1CCCN(C)C1 [Example 17, (R)-5-chloro-2-(4-methyl-7-(1-methylpiperidin-3-yl)-7H-imidazo[4,5-c]pyridazin-3-yl)phenol]
47 nM	Cc1c(-c2ccc(C(F)(F)F)cc2O)nnc2c1ncn2C12CCCC(N)(C1)C2 [Example 32, 2-(7-(5-aminobicyclo[3.1.1]heptan-1-yl)-4-methyl-7H-imidazo[4,5-c]pyridazin-3-yl)-5-(trifluoromethyl)phenol]
13 nM	CCN1CCC[C@@H](n2cnc3c(C)c(-c4ccc(C(F)(F)F)cc4O)nnc32)C1 [Example 7, (R)-2-(7-(1-ethylpiperidin-3-yl)-4-methyl-7H-imidazo[4,5-c]pyridazin-3-yl)-5-(trifluoromethyl)phenol]
53 nM	Cc1c(-c2ccc3c(c2O)CCC3)nnc2c1ncn2[C@@H]1CCCNC1 [Example 19, (R)-5-(4-methyl-7-(piperidin-3-yl)-7H-imidazo[4,5-c]pyridazin-3-yl)-2,3-dihydro-1H-inden-4-ol]
143 nM	Cc1c(-c2ccc(C(F)(F)F)cc2O)nnc2c1ncn2[C@@H]1CCCNC1 [Example 5, (R)-2-(4-methyl-7-(piperidin-3-yl)-7H-imidazo[4,5-c]pyridazin-3-yl)-5-(trifluoromethyl)phenol]
84 nM	Cc1ccc(-c2nnc3c(ncn3[C@@H]3CCCN(C)C3)c2C)c(O)c1F [Example 20, (R)-2-fluoro-3-methyl-6-(4-methyl-7-(1-methylpiperidin-3-yl)-7H-imidazo[4,5-c]pyridazin-3-yl)phenol]
19 nM	CCN1CCC[C@@H](n2ccc3cc(-c4c(C)cc(C(F)(F)F)cc4O)nnc32)C1 [Example 1, (R)-2-(7-(1-ethylpiperidin-3-yl)-7H-pyrrolo[2,3-c]pyridazin-3-yl)-3-methyl-5-(trifluoromethyl)phenol]
20 nM	Cc1c(-c2ccc(C(F)(F)F)cc2O)nnc2c1ncn2[C@@H]1CCCN(C(C)C)C1 [Example 22, (R)-2-(7-(1-isopropylpiperidin-3-yl)-4-methyl-7H-imidazo[4,5-c]pyridazin-3-yl)-5-(trifluoromethyl)phenol]
1530 nM	Cc1c(-c2ccc(C3CC3)c(F)c2O)nnc2c1ncn2[C@@H]1CCCN(C)C1 [Example 27, (R)-3-cyclopropyl-2-fluoro-6-(4-methyl-7-(1-methylpiperidin-3-yl)-7H-imidazo-[4,5-c]pyridazin-3-yl)phenol]
550 nM	Cc1c(-c2ccc(C(F)(F)F)cc2O)nnc2c1ncn2[C@H]1CNCC[C@H]1O [Example 6, (3S,4R)-3-(3-(2-hydroxy-4-(trifluoro-methyl)phenyl)-4-methyl-7H-imidazo[4,5-c]pyridazin-7-yl)piperidin-4-ol]
61 nM	Cc1c(-c2ccc3sccc3c2O)nnc2c1ncn2[C@@H]1CCCN(C)C1 [Example 15, (R)-5-(4-methyl-7-(1-methylpiperidin-3-yl)-7H-imidazo[4,5-c]pyridazin-3-yl)benzo[b]thiophen-4-ol]
23 nM	Cc1c(-c2ccc3c(c2O)CCC3)nnc2c1ncn2[C@@H]1CCCN(C)C1 [Example 16, (R)-5-(4-methyl-7-(1-methylpiperidin-3-yl)-7H-imidazo[4,5-c]pyridazin-3-yl)-2,3-dihydro-1H-inden-4-ol]
21 nM	CCN1CCC[C@@H](n2cnc3cc(-c4c(C)cc(C(F)(F)F)cc4O)nnc32)C1 [Example 3, (R)-2-(7-(1-ethylpiperidin-3-yl)-7H-imidazo[4,5-c]pyridazin-3-yl)-3-methyl-5-(trifluoromethyl)phenol]

SMILES	EC50
Cc1c(-c2ccc(C(F)(F)F)cc2O)nnc2c1ncn2[C@@H]1CC[C@@H]2CC[C@H]1N2 (single isomer, unassigned) [Example 24]	130 nM
Cc1c(-c2ccc(C(F)(F)F)cc2O)nnc2c1ncn2[C@H]1CC[C@H]2CC[C@@H]1N2 (single isomer, unassigned) [Example 25]	1010 nM
CCN1[C@@H]2CC[C@H]1[C@@H](n1cnc3c(C)c(-c4ccc(C(F)(F)F)cc4O)nnc31)CC2 (single isomer, unassigned) [Example 31]	889 nM
Cc1c(-c2ccc(C(F)(F)F)cc2O)nnc2c1ncn2[C@@H]1CC[C@@H]2CC[C@H]1N2C (single isomer, unassigned) [Example 29]	26 nM
CCN1[C@H]2CC[C@@H]1[C@H](n1cnc3c(C)c(-c4ccc(C(F)(F)F)cc4O)nnc31)CC2 (single isomer, unassigned) [Example 30]	9 nM
Cc1c(-c2ccc(C(F)(F)F)cc2O)nnc2c1ncn2[C@H]1CC[C@H]2CC[C@@H]1N2C (single isomer, unassigned) [Example 28]	1410 nM
